# Reference: patent US5750826A, “Bradykinin B2 receptor modified transgenic non-human animals” (Merck & Co., Inc., priority 1996, dated 1998)
# Read-outs that look alike come from different tables or passages of the source. Where no end group is shown, it is not given here.
# How the values were obtained:
# [1] = system: B2 receptor; settings: cited from earlier work
# [2] = system: B1 receptor; settings: cited from earlier work
# [3] = system: rat vas deferens; settings: cited from earlier work; for pre- or postsynaptic BK like responses: rat vas deferens
# [4] = target: T1, mouse B2 bradykinin receptor (Mus musculus, UniProt P32299); assay: Competition binding using 100 pM [3H]BK at the expressed mouse B2 bradykinin receptor
# T1 construct: The PCR product begins 99 bp upstream of the initiator methionine codon and ends 49 bp downstream of the stop codon; expressed in transfected cells; host or cells: COS-7 (transient), pcDNAI-Neo
# T1 sequence (P32299 1-366 isoform P32299-2): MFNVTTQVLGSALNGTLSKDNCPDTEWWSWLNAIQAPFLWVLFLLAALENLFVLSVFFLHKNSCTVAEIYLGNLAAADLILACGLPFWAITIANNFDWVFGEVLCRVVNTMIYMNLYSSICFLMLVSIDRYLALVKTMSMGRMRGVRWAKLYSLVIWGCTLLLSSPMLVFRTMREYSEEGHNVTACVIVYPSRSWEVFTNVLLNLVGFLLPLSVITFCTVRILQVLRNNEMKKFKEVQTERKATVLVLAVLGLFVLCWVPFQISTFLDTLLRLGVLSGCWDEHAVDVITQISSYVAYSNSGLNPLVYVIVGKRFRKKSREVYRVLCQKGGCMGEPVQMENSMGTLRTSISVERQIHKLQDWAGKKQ
# Description: (§1) Binding assays were then performed to determine receptor antagonist or agonist interaction. The assays utilized in the instant invention follow the method of Manning et al., J. Pharmacol. Exp. Ther., 237, 504-512 (1986). [^3 H]BK at various concentrations was incubated for 60 minutes at 25° C. with approximately 50ug membrane protein from COS-7 cells in a volume of 1 ml. The assay was terminated by filtration over Whatman GF/B filters presoaked for 3 hours in 0.1 % polyethyleneimine using a BRANDEL M-24 CELL […] (BRANDEL, Gaithersburg, Md.). The tubes were rinsed two times with 4 ml ice-cold […] and the filter bound radioactivity was quantitated by liquid scintillation counting. Nonspecific binding was determined by performing incubation in the presence of 1 uM BK and generally represents less than 5% of the total binding at 100pM ^3 H]BK. Competition binding experiments, in the presence of 100pM[^3 H]BK, were performed with varying concentrations of the test compound(s). The competition and saturation experiments were analyzed using the EBDA program of McPherson. See McPherson, G.A. J Pharmacol. Methods 14, 213-218 (1985).
# To verify the pharmacological properties of the mouse bradykinin B2 receptor the coding sequence of the mouse B2 bradykinin receptor was isolated by PCR (Perkin Elmer/Cetus) using a Techne thermocycler with the template being the EcoR I by Hind III genomic fragment in pSP72 and the 5' primer 5'-[…]-3' (SEQ.ID.NO.:8) and the 3' primer 5'- […]-3' (SEQ.ID.NO.:9). The PCR product was subcloned into the Hind III and Xba I sites of the eukaryotic expression vector pcDNAI-Neo (Invitrogen). The PCR product begins 99 bp upstream of the initiator methionine codon and ends 49 bp downstream of the stop codon. The DNA sequence analysis using Sequenase (US Biochemical) of the subcloned PCR product confirmed that the sequence was identical to that in the original genomic fragment.
# [5] = target: T2, human B2 bradykinin receptor (Homo sapiens, UniProt P30411); assay: Competition binding against 100 pM [3H]BK at the cloned human B2 receptor (COS-7); settings: for IC50: [3H]BK binding to human B2 receptor; for competition for BK binding: COS-7; for specificity of binding (rank order): COS-7 expressed human B2 receptor
# T2 construct: placing the entire B2 clone under the control of the CMV promoter; expressed in transfected cells
# T2 sequence (P30411 1-364 isoform P30411-2): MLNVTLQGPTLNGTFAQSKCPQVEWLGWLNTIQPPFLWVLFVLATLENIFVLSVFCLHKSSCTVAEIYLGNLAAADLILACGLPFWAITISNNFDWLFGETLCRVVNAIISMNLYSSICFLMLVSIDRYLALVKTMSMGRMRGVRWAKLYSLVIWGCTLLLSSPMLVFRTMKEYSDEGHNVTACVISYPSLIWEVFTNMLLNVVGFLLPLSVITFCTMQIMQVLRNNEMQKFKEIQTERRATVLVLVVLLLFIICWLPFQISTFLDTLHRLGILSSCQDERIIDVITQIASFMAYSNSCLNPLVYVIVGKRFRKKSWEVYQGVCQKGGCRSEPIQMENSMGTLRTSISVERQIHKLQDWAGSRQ
# Description: In order to enable expression of the cDNA that encodes for the B2 bradykinin receptor, COS-7 cells were transfected using LIPOFECTIN (BRL, Gaithersburg, Md.) with 50ug/10^7 cells of the B2 receptor cDNA subcloned into the eukaryotic expression vector pcDNA I-Neo (Invitrogen). Cells were then harvested after 72 hours and the membranes containing the expressed receptor protein were prepared by scraping the cells in phosphate buffered saline solution and centrifuging for ten minutes at 500× g. The cell pellet was then resuspended and homogenized with a Polytron in 20 mM N-tris(hydroxymethyl)methyl-2-aminoethane sulfonic acid (TES,pH 6.8 at room temperature) buffer containing 1 mM 1, 10 phenanthroline. The homogenate was then centrifuged for ten minutes at 500 × g. The final membrane pellet was resuspended in assay buffer (TES plus 0.1% protease free bovine serum albumin, 5 uM MK-422 (enalaprilat; Gross et al., 1981) and 140 ug/ml bacitracin using a motor-driven teflon-glass tissue homogenizer. Protein determination was performed by the method of Bradford using bovine IgG as the standard. See Bradford, M.A. Anal. Biochem. 72, 248-254 (1976).
# Binding assays were then performed to determine receptor antagonist or agonist interaction. The assays utilized in the instant invention follow the method of Manning et al., J. Pharmacol. Exp. Ther., 237, 504-512 (1986). […] (BRANDEL, Gaithersburg, Md.). The tubes were rinsed two times with 4 ml ice-cold […] and the filter bound radioactivity was quantitated by liquid scintillation counting. […] The competition and saturation experiments were analyzed using the EBDA program of McPherson. See McPherson, G.A. J Pharmacol. Methods 14, 213-218 (1985).
# [6] = target: T1, mouse B2 bradykinin receptor; assay: Saturation binding to whole COS cells transiently expressing the mouse B2 receptor; settings: single high affinity site, read-out: KD for [3H]BK
# Description: as §1, with “[^3 H]BK at various concentrations was incubated for 60 minutes at 25° C. with approximately 50ug membrane protein from COS-7 cells in a volume of 1 ml.” left out
# To verify the pharmacological properties of the mouse bradykinin B2 receptor the coding sequence of the mouse B2 bradykinin receptor was isolated by PCR (Perkin Elmer/Cetus) using a Techne thermocycler with the template being the EcoR I by Hind III genomic fragment in pSP72 and the 5' primer 5'-[…]-3' (SEQ.ID.NO.:8) and the 3' primer 5'- […]-3' (SEQ.ID.NO.:9). […]
# [7] = target: T1, mouse B2 bradykinin receptor; assay: Effect of guanine nucleotides on binding of BK to membranes (mouse B2 receptor, COS-7); settings: increasing concentrations of guanine nucleotide
# Description: The binding of BK to membranes was reduced by increasing concentrations of GTP, guanosine 5'-O-(3-thiotriphosphate) or 5'guanylylimidodiphosphate.
# [8] = system: murine AB2.1 ES cells, pBS-KO-1 transformants; assay: FIAU counter-selection of pBS-KO-1 ES cell transformants; assay type: cell-based, mouse; settings: FIAU 0.2 μM
# Description: Targeted alteration of the bradykinin B2 gene in murine ES cells The gene replacement vector used in the B2 gene disruption experiments was the pBS-KO-1 vector. When this vector recombined with the wild-type B2 allele to generate the B2 knock-out (B2 KO), the entire coding sequence for the B2 receptor was deleted (FIG. 2). The mouse embryonic stem cell line AB2.1 was electroporated with Not I -linearized pBS-KO-1 in multiple experiments. All AB2.1 ES cells were cultured on SNL feeder cells as described (Robertson, in Teratocarcinomas and embryonic stem cells, IRL Press, pp. 71-112 (1987)). Electroporations were performed with 4×10^6 ES cells and 25 μg linearized pBS-KO-l in 0.8 ml electroporation buffer (Specialty Media, Inc.) at 300v, 250 μF using a Bio-Rad Gene Pulser. ES cell transformants were selected with the antibiotic geneticin (Gibco G418: 200 μg/ml active G418), and some transformants were counter-selected with FIAU (Bristol Myers Squibb; 0.2 μM) for enhancement of homologous recombinants. Murine leukemia inhibitory factor (LIF; ESGRO, Gibco BRL, Inc.) was used at 1000 U/ml. […] G418-and FIAU-resistant ES clones were isolated by picking and growing individual colonies, and their genomic DNAs were prepared from AB2.1 5 KO-I-transformants as described (Laird et al., Nucleic Acids Res. 19:4293 (1991).
# [9] = expressed mouse B2 receptor, 100 pM [3H]BK
compound,measurement,setting,value
N=C(N)NCCC[C@H](N)C(=O)N1CCC[C@H]1C(=O)N1CCC[C@H]1C(=O)NCC(=O)N[C@@H](Cc1ccccc1)C(=O)N[C@@H](CO)C(=O)N1CCC[C@H]1C(=O)N[C@@H](Cc1ccccc1)C(=O)O [Des-Arg^9 BK],activity at B2 receptors,[1],inactive at B2 receptors
same,potency as B1 receptor agonist relative to BK,[2],higher potency than BK
same,pre- or postsynaptic BK like responses,[3],inactive
same,affinity,[4]; [9],very low affinity
same,IC50,"[4]; expressed mouse B2 receptor, 100 pM [3H]BK, read-out: IC50",6000 nM
same,inhibition at 10 µM,"[5]; 10 uM, human B2 receptor",18%
"[^3 H]BK: radioligand [3H]BK used in binding assays (RPPGFSPFR; also: tritium label; UniProt P01042 381-389, looked up)",Kd,[6],0.2 ± 0.03 nM
"[Thi^5,8,D-Phe^7 ]BK",IC50,[5],180 nM
Nc1nc2c(ncn2[C@@H]2O[C@H](COP(=O)(O)OP(=O)(O)OP(O)(O)=S)[C@@H](O)[C@H]2O)c(=O)[nH]1 [guanosine 5'-O-(3-thiotriphosphate)],binding of BK to membranes,[7],reduced
"angiotensin I: peptide (DRVYIHPFHL; Angiotensin-1; UniProt P01019 25-34, looked up)",competition for BK binding,[5]; human B2 receptor,No competition for BK binding
"D-Arg^0-[Hyp^2,3, Thi^5,8 D-Phe^7 ]BK",IC50,[5],27 nM
"angiotensin II: peptide (DRVYIHPF; Angiotensin-2; UniProt P01019 25-32, looked up)",competition for BK binding,[5]; human B2 receptor,No competition for BK binding
Nc1nc2c(ncn2[C@@H]2O[C@H](COP(=O)(O)OP(=O)(O)NP(=O)(O)O)[C@@H](O)[C@H]2O)c(=O)[nH]1 [5'guanylylimidodiphosphate],binding of BK to membranes,[7],reduced
neurotensin,competition for BK binding,[5]; human B2 receptor,No competition for BK binding
endothelin: peptide,competition for BK binding,[5]; human B2 receptor,No competition for BK binding
N=C(N)NCCC[C@H](NC(=O)[C@H](Cc1ccccc1)NC(=O)[C@@H]1CCCN1C(=O)[C@H](CO)NC(=O)[C@H](Cc1ccccc1)NC(=O)CNC(=O)[C@@H]1CCCN1C(=O)[C@@H]1CCCN1C(=O)[C@H](CCCNC(=N)N)NC(=O)[C@@H](N)CCCCN)C(=O)O [kallidin],affinity,[4]; [9],high (subnanomolar) affinity
same,specificity of binding (rank order),[5],BK>lys-BK>met-lys-BK
CC[C@H](C)[C@@H]1NC(=O)[C@H](Cc2ccc(O)cc2)NC(=O)[C@@H](N)CSSC[C@@H](C(=O)N2CCC[C@H]2C(=O)N[C@@H](CC(C)C)C(=O)NCC(N)=O)NC(=O)[C@H](CC(N)=O)NC(=O)[C@H](CCC(N)=O)NC1=O [oxytocin],competition for BK binding,[5]; human B2 receptor,No competition for BK binding
"Nc1nc2c(ncn2[C@@H]2O[C@H](COP(=O)(O)OP(=O)(O)OP(=O)(O)O)[C@@H](O)[C@H]2O)c(=O)[nH]1 [GTP, guanosine triphosphate]",binding of BK to membranes,[7],reduced
"Des-Arg^9,LeuBK: B1 antagonist",antagonism of BK responses,"[3]; high concentrations, vas deferens",failed to antagonize BK responses
same,pre- or postsynaptic BK like responses,[3],inactive
same,inhibition of BK binding,"[5]; 10 uM, human B2 receptor",11%
"O=c1[nH]c(=O)n([C@@H]2O[C@H](CO)[C@@H](O)[C@@H]2F)cc1I [FIAU, 1-(2-deoxy 2-fluoro-B-D-arabinofluranosyl)-5-iodouracil]",fewer background pBS-KO-1 transformants,[8],about eleven
CSCC[C@H](N)C(=O)N[C@@H](CCCCN)C(=O)N[C@@H](CCCNC(=N)N)C(=O)N1CCC[C@H]1C(=O)N1CCC[C@H]1C(=O)NCC(=O)N[C@@H](Cc1ccccc1)C(=O)N[C@@H](CO)C(=O)N1CCC[C@H]1C(=O)N[C@@H](Cc1ccccc1)C(=O)N[C@@H](CCCNC(=N)N)C(=O)O [met-lys-BK],specificity of binding (rank order),[5],BK>lys-BK>met-lys-BK
N=C(N)NCCC[C@H](NC(=O)[C@@H](N)CCCCN)C(=O)N1CCC[C@H]1C(=O)N1CCC[C@H]1C(=O)NCC(=O)N[C@@H](Cc1ccccc1)C(=O)N[C@@H](CO)C(=O)N1CCC[C@H]1C(=O)N[C@@H](Cc1ccccc1)C(=O)O [[des-Arg^10]-kallidin],IC50,[4],25000 nM
same,affinity,[4]; [9],very low affinity
